# Source: ChEMBL document CHEMBL1201862, “PubChem BioAssay data set” (2004)
# The source made the active and inactive calls.
# Legend:
# [1] = A Cell Based Assay for the Identification of Probe candidate Compounds with Anti- Venezuelan Equine Encephalitis virus. [Related pubchem assays: 2409, 2419, 1621, 2238, 2405, 2024, 2065, 2402, 2414, 1635, 1650, 2244 ]; format: functional
# [2] = target: T1, Ubiquitin-conjugating enzyme E2 N (Homo sapiens, UniProt P61088); format: functional;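 note: Dose-response confirmation in a TR-FRET assay detecting UBC13-driven polyubiquitin chain formation, inhibition measured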
# T1 sequence (P61088 whole entry): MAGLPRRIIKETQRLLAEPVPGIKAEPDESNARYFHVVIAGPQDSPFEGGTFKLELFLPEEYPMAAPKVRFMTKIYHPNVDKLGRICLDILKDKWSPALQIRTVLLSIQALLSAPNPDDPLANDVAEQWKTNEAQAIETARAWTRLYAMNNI
# [3] = tested on: Vero; assay: cytotoxicity of synthesized analogs in Vero cells, SAR follow-up, cytotoxicity control for West Nile virus antiviral project, cell-based, set II (AID 2402); format: functional; conditions: Chlorocebus sabaeus
# [4] = tested on: Vero; assay: West Nile virus CPE inhibition, SAR follow-up, cell-based, synthesized analogs (AID 2238); format: functional; conditions: Chlorocebus sabaeus
# [5] = tested on: Vero; assay: cytotoxicity of synthesized analogs in Vero 76, SAR follow-up, cytotoxicity control for West Nile virus antiviral project, Vero 76 cells (AID 2414); format: functional; conditions: Chlorocebus sabaeus
# [6] = tested on: Vero; assay: Vero E6 cell cytotoxicity, SAR follow-up, cytotoxicity control for West Nile virus antiviral project, synthesized analogs (AID 2244); format: functional; conditions: Chlorocebus sabaeus
# [7] = microbe, parasite or virus in culture; format: functional; conditions: Mycobacterium tuberculosis
# [8] = HepG2 cell cytotoxicity, dose response, cytotoxicity control for Shn3 inhibitor project, CellTiter-Glo, cherry-picked (AID 624134); format: functional, cell-based
# [9] = control 3'UTR Renilla luciferase suppression, dose response, counter-screen for Shn3 inhibitor project, cell-based, Clone20-Shn3RL, cherry-picked (AID 624133); format: functional
# [10] = HeLa cell cytotoxicity, dose response, cytotoxicity control for MgcRacGAP inhibitor project (AID 624300); format: functional
# [11] = Shn3 3'UTR reporter inhibitors, dose response, cell-based, Clone20 osteoblasts, firefly luciferase, cherry-picked (AID 624132); format: functional;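 note: firefly luciferase luminescence from reporter carrying the Shn3 3'UTR in osteoblasts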
# [12] = HepG2 cell cytotoxicity, dose response, cytotoxicity control, plate reader, cherry-pick, antagonist series (AID 743416); format: functional, cell-based
# [13] = MC4R antagonists, dose response, counter-screen for LGR2 antagonist project, cell-based, plate reader, cherry pick (AID 743444); format: functional;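 note: transfected HEK 293 cells stimulated with alpha-MSH peptide; potency of inhibitors of the alpha-MSH evoked signal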
# [14] = HepG2 cell cytotoxicity, dose response, cytotoxicity control for non-replicating M. tuberculosis project (AID 489018); format: functional; conditions: Mycobacterium tuberculosis
# [15] = target: T2, Rac GTPase-activating protein 1 (Homo sapiens, UniProt Q9H0H5); assay: MgcRacGAP GTPase-activating activity inhibitors, confirmation, biochemical, ADP Hunter fluorescence, primary and confirmatory (AID 624330); format: functional
# T2 sequence (Q9H0H5 whole entry): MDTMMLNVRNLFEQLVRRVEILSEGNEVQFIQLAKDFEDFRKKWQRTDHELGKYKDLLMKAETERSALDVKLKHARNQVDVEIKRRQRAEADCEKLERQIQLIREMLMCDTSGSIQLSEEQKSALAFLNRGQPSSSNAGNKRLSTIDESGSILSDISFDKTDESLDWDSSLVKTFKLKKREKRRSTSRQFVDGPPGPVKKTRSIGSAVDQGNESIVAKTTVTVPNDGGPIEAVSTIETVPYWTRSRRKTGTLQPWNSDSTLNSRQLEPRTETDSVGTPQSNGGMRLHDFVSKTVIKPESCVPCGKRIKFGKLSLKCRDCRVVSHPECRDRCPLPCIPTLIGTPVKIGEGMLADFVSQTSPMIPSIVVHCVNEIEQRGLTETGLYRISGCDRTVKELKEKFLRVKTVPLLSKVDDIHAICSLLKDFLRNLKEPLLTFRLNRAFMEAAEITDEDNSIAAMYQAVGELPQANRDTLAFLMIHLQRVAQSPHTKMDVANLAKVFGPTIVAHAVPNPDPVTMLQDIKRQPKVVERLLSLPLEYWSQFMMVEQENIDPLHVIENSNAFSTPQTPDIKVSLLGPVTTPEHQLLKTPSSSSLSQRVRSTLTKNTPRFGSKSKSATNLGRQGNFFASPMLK
# [16] = LGR2 antagonists, dose response, cell-based, HEK293, CRE-luciferase reporter, cherry pick, set 2 (AID 743343); format: functional;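 note: transfected cells were stimulated with diluted bursicon conditioned medium after compound addition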
# [17] = cells; format: functional
# [18] = A549 cell cytotoxicity, dose response, cytotoxicity control, plate reader, cherry-pick, antagonist series (AID 743412); format: functional, cell-based
# [19] = THP-1 cell cytotoxicity, dose response, cytotoxicity control for non-replicating M. tuberculosis project (AID 489025); format: functional
# [20] = target: T3, Coagulation factor XII (Homo sapiens, UniProt P00748); assay: FXIIa inhibitor potency, concentration-response, biochemical (AID 716); format: functional
# T3 sequence (P00748 whole entry): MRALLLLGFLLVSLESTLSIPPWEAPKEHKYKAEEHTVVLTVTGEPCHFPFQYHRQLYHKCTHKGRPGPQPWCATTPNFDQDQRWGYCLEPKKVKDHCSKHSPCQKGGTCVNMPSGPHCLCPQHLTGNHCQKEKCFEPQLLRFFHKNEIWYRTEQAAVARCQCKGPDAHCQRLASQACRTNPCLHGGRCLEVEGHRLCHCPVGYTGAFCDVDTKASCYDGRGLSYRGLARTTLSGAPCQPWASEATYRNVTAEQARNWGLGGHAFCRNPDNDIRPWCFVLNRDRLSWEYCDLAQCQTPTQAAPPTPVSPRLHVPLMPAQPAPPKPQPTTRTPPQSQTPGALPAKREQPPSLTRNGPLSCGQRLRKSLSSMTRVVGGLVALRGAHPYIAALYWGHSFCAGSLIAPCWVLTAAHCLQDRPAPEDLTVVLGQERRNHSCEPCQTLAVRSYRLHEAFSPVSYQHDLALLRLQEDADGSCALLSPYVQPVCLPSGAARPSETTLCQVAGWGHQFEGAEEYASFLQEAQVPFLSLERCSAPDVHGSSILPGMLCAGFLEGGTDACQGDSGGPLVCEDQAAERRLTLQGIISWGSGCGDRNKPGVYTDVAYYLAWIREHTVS
# [21] = target: CAAX prenyl protease 2 (Saccharomyces cerevisiae S288c, UniProt Q03530); format: biochemical
# Sequence of CAAX prenyl protease 2 (Saccharomyces cerevisiae S288c, UniProt Q03530) (Q03530 whole entry): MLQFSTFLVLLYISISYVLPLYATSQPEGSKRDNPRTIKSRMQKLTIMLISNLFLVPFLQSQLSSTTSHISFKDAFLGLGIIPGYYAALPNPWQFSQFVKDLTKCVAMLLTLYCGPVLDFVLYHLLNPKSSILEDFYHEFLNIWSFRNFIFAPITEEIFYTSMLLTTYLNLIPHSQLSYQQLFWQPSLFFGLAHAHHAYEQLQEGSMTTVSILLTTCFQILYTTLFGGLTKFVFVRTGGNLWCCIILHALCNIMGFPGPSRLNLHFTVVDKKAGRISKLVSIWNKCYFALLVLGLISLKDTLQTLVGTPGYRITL
# [22] = target: Trypsin (Sus scrofa, UniProt P00761); assay: porcine trypsin inhibitors, dose response, selectivity assay for Rce1 protease inhibitor project, biochemical, quenched peptide fluorescence, cherry-pick (AID 488789)
# Sequence of Trypsin (P00761 whole entry): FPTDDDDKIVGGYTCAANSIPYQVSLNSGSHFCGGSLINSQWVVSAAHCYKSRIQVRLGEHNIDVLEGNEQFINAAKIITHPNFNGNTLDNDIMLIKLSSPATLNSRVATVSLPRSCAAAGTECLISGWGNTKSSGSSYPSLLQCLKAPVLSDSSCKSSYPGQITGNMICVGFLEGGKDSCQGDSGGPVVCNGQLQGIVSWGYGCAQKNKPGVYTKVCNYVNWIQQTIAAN
# [23] = target: CAAX prenyl protease 2 (Homo sapiens, UniProt Q9Y256); assay: human Rce1 protease inhibitors, dose response, biochemical, yeast membranes, quenched-peptide fluorescence, cherry-pick (AID 588849)
# Sequence of CAAX prenyl protease 2 (Homo sapiens, UniProt Q9Y256) (Q9Y256 whole entry): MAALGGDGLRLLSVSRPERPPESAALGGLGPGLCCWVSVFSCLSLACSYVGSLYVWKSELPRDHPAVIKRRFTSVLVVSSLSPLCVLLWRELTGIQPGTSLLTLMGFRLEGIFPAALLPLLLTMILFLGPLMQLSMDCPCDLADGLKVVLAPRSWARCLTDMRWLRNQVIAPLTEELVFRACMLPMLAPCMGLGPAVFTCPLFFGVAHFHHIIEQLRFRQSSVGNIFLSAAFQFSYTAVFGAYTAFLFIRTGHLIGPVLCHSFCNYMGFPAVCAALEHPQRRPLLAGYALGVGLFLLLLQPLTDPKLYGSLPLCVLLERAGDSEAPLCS
# [24] = target: T4, Sphingosine 1-phosphate receptor 4 (Homo sapiens, UniProt O95977); assay: S1P4 receptor agonists, human, late-stage follow-up, cell-based, fluorescence, synthesized compounds (AID 463107); format: functional
# T4 sequence (O95977 whole entry): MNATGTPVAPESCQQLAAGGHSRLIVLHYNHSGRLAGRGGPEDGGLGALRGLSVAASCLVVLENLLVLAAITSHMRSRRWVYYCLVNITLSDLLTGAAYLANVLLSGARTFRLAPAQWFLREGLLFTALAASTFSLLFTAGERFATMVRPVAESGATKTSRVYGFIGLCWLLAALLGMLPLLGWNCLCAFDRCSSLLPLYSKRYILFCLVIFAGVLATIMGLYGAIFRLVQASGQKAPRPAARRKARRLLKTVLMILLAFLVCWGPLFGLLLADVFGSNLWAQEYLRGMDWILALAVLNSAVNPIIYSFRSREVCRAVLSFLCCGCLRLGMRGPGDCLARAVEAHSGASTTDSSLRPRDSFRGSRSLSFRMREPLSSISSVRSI
# [25] = target: Voltage-dependent T-type calcium channel subunit alpha-1H (Homo sapiens, UniProt O95180); assay: Cav3.2 T-type channel inhibitors, cell-based, synthetic library set 1, calcium flux (AID 493022); format: functional
# Sequence of Voltage-dependent T-type calcium channel subunit alpha-1H (O95180 whole entry): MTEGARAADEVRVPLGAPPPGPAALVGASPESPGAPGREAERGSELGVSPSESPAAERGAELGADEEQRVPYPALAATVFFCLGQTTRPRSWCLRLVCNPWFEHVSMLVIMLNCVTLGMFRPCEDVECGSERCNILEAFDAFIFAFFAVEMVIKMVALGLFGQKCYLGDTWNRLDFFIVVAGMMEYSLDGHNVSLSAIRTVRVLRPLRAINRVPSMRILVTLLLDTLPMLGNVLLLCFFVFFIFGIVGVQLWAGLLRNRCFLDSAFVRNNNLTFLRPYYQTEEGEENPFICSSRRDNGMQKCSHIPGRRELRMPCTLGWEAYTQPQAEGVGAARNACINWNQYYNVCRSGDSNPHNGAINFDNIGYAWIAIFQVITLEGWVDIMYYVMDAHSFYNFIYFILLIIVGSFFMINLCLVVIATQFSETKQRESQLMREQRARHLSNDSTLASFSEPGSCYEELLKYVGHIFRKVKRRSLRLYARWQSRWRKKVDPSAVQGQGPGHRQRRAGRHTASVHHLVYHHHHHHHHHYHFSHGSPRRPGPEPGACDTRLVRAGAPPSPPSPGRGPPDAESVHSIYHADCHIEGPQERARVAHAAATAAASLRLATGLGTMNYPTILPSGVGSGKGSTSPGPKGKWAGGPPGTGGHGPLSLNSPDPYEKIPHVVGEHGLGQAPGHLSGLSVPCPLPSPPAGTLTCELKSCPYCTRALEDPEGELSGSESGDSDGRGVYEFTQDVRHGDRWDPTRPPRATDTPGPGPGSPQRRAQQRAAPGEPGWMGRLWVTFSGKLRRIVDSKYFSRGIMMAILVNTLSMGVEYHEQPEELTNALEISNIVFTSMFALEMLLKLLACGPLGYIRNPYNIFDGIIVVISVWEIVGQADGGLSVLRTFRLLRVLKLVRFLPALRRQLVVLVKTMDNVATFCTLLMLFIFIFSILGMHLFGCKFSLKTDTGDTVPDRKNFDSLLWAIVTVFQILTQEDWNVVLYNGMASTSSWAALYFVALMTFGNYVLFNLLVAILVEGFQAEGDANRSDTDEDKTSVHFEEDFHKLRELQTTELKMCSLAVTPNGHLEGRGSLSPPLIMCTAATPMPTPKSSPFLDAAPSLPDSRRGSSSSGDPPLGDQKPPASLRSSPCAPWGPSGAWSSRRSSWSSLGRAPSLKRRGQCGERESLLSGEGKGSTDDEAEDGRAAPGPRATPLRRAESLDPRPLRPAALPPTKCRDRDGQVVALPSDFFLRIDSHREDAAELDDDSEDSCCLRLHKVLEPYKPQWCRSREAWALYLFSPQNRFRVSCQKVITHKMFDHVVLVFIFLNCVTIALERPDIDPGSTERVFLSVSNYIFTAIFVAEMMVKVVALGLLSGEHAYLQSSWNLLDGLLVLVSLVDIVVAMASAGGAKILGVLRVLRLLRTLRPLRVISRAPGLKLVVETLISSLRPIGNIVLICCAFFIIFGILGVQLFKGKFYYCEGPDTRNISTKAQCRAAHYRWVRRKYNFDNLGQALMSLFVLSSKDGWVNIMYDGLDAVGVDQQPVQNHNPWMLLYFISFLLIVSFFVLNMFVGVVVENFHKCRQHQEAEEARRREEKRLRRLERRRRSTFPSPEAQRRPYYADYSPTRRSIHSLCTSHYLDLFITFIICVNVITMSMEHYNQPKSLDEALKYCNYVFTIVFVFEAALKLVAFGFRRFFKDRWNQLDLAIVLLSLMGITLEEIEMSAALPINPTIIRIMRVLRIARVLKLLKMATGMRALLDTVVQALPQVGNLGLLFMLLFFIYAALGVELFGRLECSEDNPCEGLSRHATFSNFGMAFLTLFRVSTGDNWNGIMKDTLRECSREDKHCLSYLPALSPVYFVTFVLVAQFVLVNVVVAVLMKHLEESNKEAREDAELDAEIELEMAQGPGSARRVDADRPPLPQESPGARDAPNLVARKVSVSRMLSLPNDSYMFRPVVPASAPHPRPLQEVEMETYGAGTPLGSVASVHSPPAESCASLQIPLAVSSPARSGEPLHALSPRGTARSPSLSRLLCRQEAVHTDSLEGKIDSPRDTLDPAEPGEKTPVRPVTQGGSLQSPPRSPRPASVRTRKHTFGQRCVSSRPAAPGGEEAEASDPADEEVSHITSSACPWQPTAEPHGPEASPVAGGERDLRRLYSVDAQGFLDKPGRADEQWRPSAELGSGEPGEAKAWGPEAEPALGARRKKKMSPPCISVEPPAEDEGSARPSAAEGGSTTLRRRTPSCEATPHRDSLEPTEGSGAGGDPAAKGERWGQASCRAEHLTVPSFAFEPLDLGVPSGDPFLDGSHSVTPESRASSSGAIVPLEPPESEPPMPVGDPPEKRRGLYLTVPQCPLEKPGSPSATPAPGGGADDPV
# [26] = target: T5, Short transient receptor potential channel 4 (Mus musculus, UniProt Q9QUQ5); assay: TRPC4 positive allosteric modulators, dose response, cell-based, HEK293 TRPC4/mu-opioid, Fluo-4 calcium, EC20 DAMGO (AID 434941); format: functional
# T5 sequence (Q9QUQ5 whole entry): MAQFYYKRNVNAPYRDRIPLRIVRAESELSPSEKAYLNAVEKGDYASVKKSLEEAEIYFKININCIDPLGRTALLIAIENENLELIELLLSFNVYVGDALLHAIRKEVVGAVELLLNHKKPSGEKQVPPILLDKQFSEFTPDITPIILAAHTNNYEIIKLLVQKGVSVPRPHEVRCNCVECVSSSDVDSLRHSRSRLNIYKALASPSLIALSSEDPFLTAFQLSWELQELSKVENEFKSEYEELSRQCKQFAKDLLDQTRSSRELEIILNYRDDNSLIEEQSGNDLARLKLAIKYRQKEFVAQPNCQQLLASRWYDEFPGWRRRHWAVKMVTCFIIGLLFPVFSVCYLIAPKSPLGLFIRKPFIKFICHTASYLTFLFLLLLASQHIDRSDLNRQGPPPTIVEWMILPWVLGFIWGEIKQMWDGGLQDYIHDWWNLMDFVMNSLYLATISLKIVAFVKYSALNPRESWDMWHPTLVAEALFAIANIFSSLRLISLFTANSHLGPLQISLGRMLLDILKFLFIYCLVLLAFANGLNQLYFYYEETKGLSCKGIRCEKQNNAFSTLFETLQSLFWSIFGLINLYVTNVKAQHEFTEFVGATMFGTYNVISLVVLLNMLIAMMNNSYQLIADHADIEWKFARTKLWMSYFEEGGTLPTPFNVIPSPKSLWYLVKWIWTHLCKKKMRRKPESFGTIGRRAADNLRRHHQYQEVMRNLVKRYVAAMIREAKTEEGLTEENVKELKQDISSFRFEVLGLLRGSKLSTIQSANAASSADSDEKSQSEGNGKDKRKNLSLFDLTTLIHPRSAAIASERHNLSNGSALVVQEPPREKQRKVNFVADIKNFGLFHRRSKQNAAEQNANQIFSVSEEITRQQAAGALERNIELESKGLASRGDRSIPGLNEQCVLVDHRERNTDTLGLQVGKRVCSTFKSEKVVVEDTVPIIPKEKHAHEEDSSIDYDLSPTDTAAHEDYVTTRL
# [27] = target: T6, Dual specificity protein phosphatase 3 (Homo sapiens, UniProt P51452); assay: SAR VHR1 absorbance Assay for In Vitro dose response studies. [Related pubchem assays (depositor defined):AID1654, AID1661, AID1878, AID1992, AID2004]
# T6 sequence (P51452 whole entry): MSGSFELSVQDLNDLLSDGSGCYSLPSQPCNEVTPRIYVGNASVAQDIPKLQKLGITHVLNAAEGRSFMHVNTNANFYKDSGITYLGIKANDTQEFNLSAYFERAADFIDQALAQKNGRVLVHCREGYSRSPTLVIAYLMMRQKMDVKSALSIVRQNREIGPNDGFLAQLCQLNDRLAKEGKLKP
# [28] = target: T7, Dual specificity protein phosphatase 6 (Rattus norvegicus, UniProt Q64346); format: functional;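 note: confirmatory in vitro dose-response testing of MKP-3 inhibition; recombinant His-tagged MKP-3 made in E. coli BL21 with OMFP substrate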
# T7 sequence (Q64346 whole entry): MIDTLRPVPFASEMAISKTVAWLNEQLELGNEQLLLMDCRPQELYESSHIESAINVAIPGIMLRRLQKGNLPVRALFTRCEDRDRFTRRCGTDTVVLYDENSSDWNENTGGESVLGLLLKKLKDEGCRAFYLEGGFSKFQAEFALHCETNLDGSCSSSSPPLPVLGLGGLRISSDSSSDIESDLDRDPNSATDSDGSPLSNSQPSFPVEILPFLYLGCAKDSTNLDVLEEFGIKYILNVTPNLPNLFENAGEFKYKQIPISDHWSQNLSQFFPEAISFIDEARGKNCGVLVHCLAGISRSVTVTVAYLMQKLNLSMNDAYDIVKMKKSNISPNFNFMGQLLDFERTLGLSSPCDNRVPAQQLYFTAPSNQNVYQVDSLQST
# [29] = target: T6, Dual specificity protein phosphatase 3; assay: SAR VHR1 Fluorescent Assay for In Vitro dose response studies. [Related pubchem assays (depositor defined):AID1654, AID1661, AID1878, AID1992, AID2004, AID2070, AID2085]; format: functional
# [30] = target: T8, Tyrosine-protein phosphatase non-receptor type 7 (Homo sapiens, UniProt P35236); assay: redox-dependent HePTP inhibition, mechanism study, biochemical, fluorescence (AID 2068); format: functional
# T8 sequence (P35236 whole entry): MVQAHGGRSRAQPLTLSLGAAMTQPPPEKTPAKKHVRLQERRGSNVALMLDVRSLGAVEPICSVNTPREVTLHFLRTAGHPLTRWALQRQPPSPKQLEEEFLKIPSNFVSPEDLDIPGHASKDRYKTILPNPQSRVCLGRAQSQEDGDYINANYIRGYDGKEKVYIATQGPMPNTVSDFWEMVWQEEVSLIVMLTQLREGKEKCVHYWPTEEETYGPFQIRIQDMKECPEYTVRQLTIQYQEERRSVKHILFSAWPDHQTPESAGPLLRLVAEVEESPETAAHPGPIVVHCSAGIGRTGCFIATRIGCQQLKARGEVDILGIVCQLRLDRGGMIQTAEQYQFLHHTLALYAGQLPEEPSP
smiles,measurement,setting,value
Cc1cccc2c1-c1sc(C(=O)NCCCN3CCC(C)CC3)cc1CO2,IC50,[1],8.52 µM (active)
same,IC50,[2],> 20 µM (inactive)
same,CC50,[3],10.1 µM (active)
same,IC50,[4],> 40 µM (active)
same,CC50,[5],20 µM (active)
same,CC50,[6],10 µM (active)
CCn1c2ccccc2c2cc(CNCc3ccc(OC)cc3OC)ccc21,CC50,[7],19.3 µM (active)
same,AC50,[8],16.9 µM (active)
same,AC50,[9],14.8 µM (active)
same,CC50,[10],37 µM (active)
same,AC50,[11],14.7 µM (active)
same,AC50,[12],13.8 µM (active)
same,AC50,[13],32.9 µM (active)
same,CC50,[14],15.6 µM (active)
same,IC50,[15],99.7 µM (active)
same,AC50,[16],18.6 µM (active)
same,IC50,[17],12.8 µM (active)
same,AC50,[18],13.6 µM (active)
same,CC50,[19],16.7 µM (active)
CC(C)NC(=O)CCCc1cn(C)c2ccccc12,IC50,[20],> 50 µM (inactive)
CC1(C(=O)N(CC(=O)NC2CCCC2)Cc2ccccc2)CC(=O)N=C2C=CC=CN21 (stereo not given),AC50,[21],4.24 µM (active)
same,AC50,[22],4.57 µM (active)
same,AC50,[23],2.75 µM (active)
Cc1ccc(OCCOc2ccccc2)c([N+](=O)[O-])n1,EC50,[24],> 50 µM (inactive)
O=C(COc1ccc(F)cc1)Nc1nnc(-c2ccc3ccccc3c2)o1,EC50,[25],3.5 µM (active)
CC1Cc2ccccc2N1C(=O)CSc1nc2c(c(=O)n(C)c(=O)n2C)n1Cc1ccc(F)cc1 (stereo not given),EC50,[26],1.33 µM (active)
S=C(c1cn(CCOc2ccccc2)c2ccccc12)N1CCCCC1,IC50,[27],> 100 µM (inactive)
same,IC50,[28],> 100 µM (inactive)
same,IC50,[29],> 100 µM (inactive)
same,IC50,[30],31.7 µM (active)
